Where two headings read alike, the source gives them in different places.
Legend:
PfENT1 [1] = target: T1, PfENT1 (Plasmodium falciparum, UniProt Q8IDM6); assay: cell-based; conditions: 125 µM 5-FUrd
PfENT1 [2] = target: T1, PfENT1; format: cell-based
[3] = test system: chloroquine-resistant Dd2 parasites; assay: Dd2 parasite viability / proliferation; format: cell-based, Plasmodium falciparum; conditions: for IC50: Plasmodium falciparum, DD2, read-out: IC50 Dd2 parasite viability – high purine media; for IC50 with xanthine as purine source versus hypoxanthine: WT Dd2, 90 µM xanthine vs 10 µM hypoxanthine as sole purine source
PfENT1 [4] = target: T1, PfENT1; format: cell-based; conditions: each compound at 10 µM; 125 µM 5-FUrd
PfENT1 [5] = target: T1, PfENT1; conditions: cited from earlier work
PfENT1 [6] = target: T1, PfENT1; assay: [3H]adenosine uptake into ade2Δ + PfENT1-CO yeast; format: cell-based
[7] = test system: fui1Δ::PfENT1-HA-CO strain; assay: 5-FUrd growth inhibition of PfENT1-HA-CO expressing fui1Δ yeast; format: cell-based; conditions: Saccharomyces cerevisiae, read-out: 5-FUrd IC50, yeast cell growth, growth assessed by OD600
PfENT4 = assay: [14C]2-deoxyadenosine uptake into PfENT4-expressing Xenopus oocytes; format: cell-based, Plasmodium falciparum; conditions: concentrations up to 50 µM
P. falciparum 3D7 strain = assay: 3D7 parasite viability / proliferation, 72-h growth assay; conditions: ~10× the IC50 concentration; first 24 h of culture
[8] = EC50 5-FUrd growth rescue of fui1Δ::PfENT1-HA-CO, mean ± SD, N ≥ 3

T1 sequence (Q8IDM6 whole entry): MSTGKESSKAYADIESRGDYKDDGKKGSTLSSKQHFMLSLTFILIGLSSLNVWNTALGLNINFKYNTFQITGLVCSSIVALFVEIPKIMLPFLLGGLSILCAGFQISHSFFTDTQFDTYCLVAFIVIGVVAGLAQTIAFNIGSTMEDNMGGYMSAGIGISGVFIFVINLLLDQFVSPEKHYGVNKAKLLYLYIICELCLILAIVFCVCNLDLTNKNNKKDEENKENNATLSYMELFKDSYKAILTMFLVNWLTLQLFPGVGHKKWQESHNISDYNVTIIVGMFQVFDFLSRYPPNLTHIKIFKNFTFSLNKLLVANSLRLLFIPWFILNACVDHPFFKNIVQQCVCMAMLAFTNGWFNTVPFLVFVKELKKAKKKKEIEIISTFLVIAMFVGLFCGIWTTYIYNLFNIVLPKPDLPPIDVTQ

Structure (SMILES) | EC50 (PfENT1 [1]; [8]) [µM] | IC50 (PfENT1 [2]) [µM] | IC50 [3] [µM] | IC50 with xanthine as purine source versus hypoxanthine [3] | further results
O=C(Nc1ccc(Cl)c(-c2nc3ncccc3o2)c1)c1cccs1 [Compound 19, N-(4-chloro-3-[1,3]oxazolo[4,5-b]pyridin-2-ylphenyl)-2-thiophenecarboxamide] | 5.4 ± 0.8 | 1.7 ± 0.2 | 37.4 ± 1.6 |  | 
OC[C@H]1O[C@@H](n2cnc3c(O)ncnc32)[C@H](O)[C@@H]1O [Inosine, inosine, reference compound] |  |  |  |  | EC50 (PfENT1 [1]; EC50 rescue of fui1Δ::PfENT1-HA-CO strain growth, OD600): 3300 ± 200 µM; EC50 (PfENT1 [1]; EC50 rescue of fui1Δ::PfENT1-HA-CO strain growth, fluorescence): 5600 ± 2100 µM
OCCN(CCO)c1nc(N2CCCCC2)c2nc(N(CCO)CCO)nc(N3CCCCC3)c2n1 [dipyridamole] |  |  |  |  | HTS outcome (positive = growth > four SD above no-growth control) (PfENT1 [4]): not positive; block of PfENT1 (PfENT1 [5]): do not block
Cc1ccccc1/C=C/c1nc2ccccc2c(=O)[nH]1 [Compound 13, 2-[2-(2-methylphenyl)vinyl]-4(3H)-quinazolinone] | 4.7 ± 2.9 | 0.6 ± 0.1 | 2.6 ± 0.2 |  | IC50 (PfENT1 [6]): 0.0039 ± 0.0016 µM
O=c1[nH]c(=O)n([C@@H]2O[C@H](CO)[C@@H](O)[C@H]2O)cc1F [5-FUrd, 5-fluorouridine] |  |  |  |  | IC50 [7]: 7 ± 2 µM
O=C(Nc1cccc(-c2nc3ncccc3o2)c1)c1cccc(F)c1 [Compound 6, 3-fluoro-N-(3-[1,3]oxazolo[4,5-b]pyridin-2-ylphenyl)benzamide] | 5.7 ± 1.3 | 1.1 ± 0.1 | 38.8 ± 4.9 |  | 
O=C(Nc1ccc2nc(NC(=O)c3ccco3)sc2c1)c1ccco1 [Compound 1, N,N'-1,3-benzothiazole-2,6-diyldi(2-furamide)] | 0.8 | 0.2 ± 0.1 | 25.8 ± 1.3 | significantly lower | 
Cn1cc(C(=O)C(=O)Nc2ccc(C(=O)N3CCCC3)cc2)c2ccccc21 [Compound 5, 2-(1-methyl-1H-indol-3-yl)-2-oxo-N-[4-(pyrrolidin-1-ylcarbonyl)phenyl]acet amide] | 6.5 ± 1.5 | 2 ± 0.01 | 28.9 ± 2.6 | significantly lower | 
O=C(Nc1ccc(-c2nnc(-c3ccco3)o2)cc1)c1ccco1 [Compound 4, N-{4-[5-(2-furyl)-1,3,4-oxadiazol-2-yl]phenyl}-2-furamide] | 5.7 ± 0.8 | 1.7 ± 0.4 | 15.3 ± 2.7 |  | 
COc1cc(COc2ccc3c(C)cc(=O)oc3c2)cc(OC)c1OC [Compound 3, 4-methyl-7-[(3,4,5-trimethoxybenzyl)oxy] -2H-chromen-2-one] | 2.3 ± 0.9 | 0.6 ± 0.1 | 36.2 ± 6 | significantly lower | inhibition of [14C]2-deoxyadenosine uptake (PfENT4): did not inhibit; parasite stage progression (microscopy) (P. falciparum 3D7 strain): failed to progress beyond the ring stage
O=C(Nc1ccc(-c2nc3ncccc3o2)cc1)c1ccccc1Br [Compound 2, 2-bromo-N-(4-[1,3]oxazolo[4,5-b]pyridin-2-ylphenyl)benzamide] | 6 ± 1.7 | 2.1 ± 0.9 | 52.4 ± 5.7 | significantly lower | 
O=[N+]([O-])c1ccc(CSc2ncnc3c2ncn3C2OC(CO)C(O)C2O)cc1 (stereo not shown) [nitrobenzylthioinosine] |  |  |  |  | block of PfENT1 (PfENT1 [5]): do not block
COc1ccccc1C(=O)Nc1cccc(-c2nc3ncccc3o2)c1 [Compound 7, 2-methoxy-N-(3-[1,3]oxazolo[4,5-b]pyridin-2-ylphenyl)benzamide] | 6.4 ± 0.9 | 1.6 ± 0.01 | 31 ± 0.6 |  | 

— paper PMC4369170 (ACS chemical biology, 2015)
